From ChEMBL document CHEMBL5726298, “Heteroaryl-pyrimidinone compounds as PDE2 inhibitors” (2019)

Molecular target: T1, GMP-stimulated 3',5'-cyclic nucleotide phosphodiesterase (Macaca mulatta, UniProt B3VTJ2)
T1 sequence (B3VTJ2 whole entry): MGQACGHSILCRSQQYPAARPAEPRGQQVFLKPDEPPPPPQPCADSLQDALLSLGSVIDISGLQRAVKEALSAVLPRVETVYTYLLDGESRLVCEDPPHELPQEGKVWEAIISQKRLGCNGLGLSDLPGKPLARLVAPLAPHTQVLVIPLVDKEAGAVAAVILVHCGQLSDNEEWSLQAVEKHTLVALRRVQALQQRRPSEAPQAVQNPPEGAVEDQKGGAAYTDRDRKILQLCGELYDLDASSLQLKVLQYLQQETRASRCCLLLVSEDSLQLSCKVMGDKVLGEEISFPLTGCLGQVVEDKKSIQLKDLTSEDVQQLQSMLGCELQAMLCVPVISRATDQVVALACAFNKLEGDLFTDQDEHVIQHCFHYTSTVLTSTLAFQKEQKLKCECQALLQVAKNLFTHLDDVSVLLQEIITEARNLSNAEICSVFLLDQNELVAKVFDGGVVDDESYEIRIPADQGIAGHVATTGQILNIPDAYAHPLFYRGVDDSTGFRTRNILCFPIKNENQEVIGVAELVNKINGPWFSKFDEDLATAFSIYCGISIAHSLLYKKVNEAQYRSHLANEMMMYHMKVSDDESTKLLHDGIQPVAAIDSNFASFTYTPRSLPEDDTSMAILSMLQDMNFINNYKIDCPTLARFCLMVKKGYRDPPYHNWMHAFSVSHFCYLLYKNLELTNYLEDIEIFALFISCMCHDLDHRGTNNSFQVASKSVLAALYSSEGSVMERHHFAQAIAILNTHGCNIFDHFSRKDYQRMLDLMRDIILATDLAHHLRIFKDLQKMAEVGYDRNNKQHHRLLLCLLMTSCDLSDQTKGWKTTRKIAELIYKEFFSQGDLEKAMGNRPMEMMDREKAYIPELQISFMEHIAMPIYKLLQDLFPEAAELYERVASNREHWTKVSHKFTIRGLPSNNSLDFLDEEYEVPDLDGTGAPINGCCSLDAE
Assay: PDE2A3 assay: The activity of the compounds in accordance with the present invention as PDE2 inhibitors may be readily determined using a fluorescence polarization (FP) methodology (Huang, W., et al., J. Biomol Screen, 2002, 7: 215). […] Done in Lab A for rhPDE2A3.

Ki: 1240 nM
SMILES: Cc1nc(-c2csc(C(C)c3ccc(C(F)(F)F)cc3)n2)cc(=O)[nH]1 (stereo unspecified)
